Experimental data: patent US20240400577A1, “MODULATORS OF PROTEIN KINASES” (VIBLIOME THERAPEUTICS, LLC, priority 2021, published 2024)

Assays:
Assay in all cases: Kinase panel enzymatic inhibition assay (Nanosyn)
Type in all cases: biochemical
MAP4K2 = molecular target: T1, MAP4K2 (Homo sapiens, UniProt Q12851); conditions: compound 5 μM; ATP at Km; 30-minute pre-incubation
T1 construct: purchased Nanosyn (contract screening)
T1 sequence (Q12851 1-820): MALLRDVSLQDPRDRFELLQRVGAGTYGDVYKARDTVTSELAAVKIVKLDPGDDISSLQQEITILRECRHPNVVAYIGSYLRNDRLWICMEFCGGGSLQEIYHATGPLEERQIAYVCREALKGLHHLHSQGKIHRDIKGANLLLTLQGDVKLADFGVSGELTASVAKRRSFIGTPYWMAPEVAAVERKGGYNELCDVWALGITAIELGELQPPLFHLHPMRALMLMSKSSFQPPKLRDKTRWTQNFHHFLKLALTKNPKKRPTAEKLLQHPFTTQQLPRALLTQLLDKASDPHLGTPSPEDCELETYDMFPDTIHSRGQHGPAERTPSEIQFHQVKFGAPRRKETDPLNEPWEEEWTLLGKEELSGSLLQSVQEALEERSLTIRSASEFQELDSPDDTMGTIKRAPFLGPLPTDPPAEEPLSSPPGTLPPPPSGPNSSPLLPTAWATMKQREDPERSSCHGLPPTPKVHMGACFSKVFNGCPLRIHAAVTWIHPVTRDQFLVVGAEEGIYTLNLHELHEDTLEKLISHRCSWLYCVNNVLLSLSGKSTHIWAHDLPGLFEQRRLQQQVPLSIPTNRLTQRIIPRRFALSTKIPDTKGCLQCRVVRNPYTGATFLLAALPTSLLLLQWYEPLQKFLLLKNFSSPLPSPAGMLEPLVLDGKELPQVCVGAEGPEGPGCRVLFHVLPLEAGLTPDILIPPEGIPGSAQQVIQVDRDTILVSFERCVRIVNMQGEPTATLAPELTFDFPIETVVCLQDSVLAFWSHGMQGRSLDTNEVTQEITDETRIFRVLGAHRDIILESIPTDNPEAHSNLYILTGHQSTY
Method in brief: (§1)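 Single-point screen: compound 5 μM, ATP at Km per kinase, 30 min pre-incubation. Readout by mobility shift (Caliper LabChip), ADP detection or TR-fluorescence. Reported as % inhibition or IC50.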

TNIK = molecular target: T2, TNIK (Homo sapiens, UniProt Q9UKE5); conditions: compound 5 μM; ATP at Km; 30-minute pre-incubation
T2 construct: Nanosyn (contract laboratory that ran the panel)
T2 sequence (Q9UKE5 whole entry): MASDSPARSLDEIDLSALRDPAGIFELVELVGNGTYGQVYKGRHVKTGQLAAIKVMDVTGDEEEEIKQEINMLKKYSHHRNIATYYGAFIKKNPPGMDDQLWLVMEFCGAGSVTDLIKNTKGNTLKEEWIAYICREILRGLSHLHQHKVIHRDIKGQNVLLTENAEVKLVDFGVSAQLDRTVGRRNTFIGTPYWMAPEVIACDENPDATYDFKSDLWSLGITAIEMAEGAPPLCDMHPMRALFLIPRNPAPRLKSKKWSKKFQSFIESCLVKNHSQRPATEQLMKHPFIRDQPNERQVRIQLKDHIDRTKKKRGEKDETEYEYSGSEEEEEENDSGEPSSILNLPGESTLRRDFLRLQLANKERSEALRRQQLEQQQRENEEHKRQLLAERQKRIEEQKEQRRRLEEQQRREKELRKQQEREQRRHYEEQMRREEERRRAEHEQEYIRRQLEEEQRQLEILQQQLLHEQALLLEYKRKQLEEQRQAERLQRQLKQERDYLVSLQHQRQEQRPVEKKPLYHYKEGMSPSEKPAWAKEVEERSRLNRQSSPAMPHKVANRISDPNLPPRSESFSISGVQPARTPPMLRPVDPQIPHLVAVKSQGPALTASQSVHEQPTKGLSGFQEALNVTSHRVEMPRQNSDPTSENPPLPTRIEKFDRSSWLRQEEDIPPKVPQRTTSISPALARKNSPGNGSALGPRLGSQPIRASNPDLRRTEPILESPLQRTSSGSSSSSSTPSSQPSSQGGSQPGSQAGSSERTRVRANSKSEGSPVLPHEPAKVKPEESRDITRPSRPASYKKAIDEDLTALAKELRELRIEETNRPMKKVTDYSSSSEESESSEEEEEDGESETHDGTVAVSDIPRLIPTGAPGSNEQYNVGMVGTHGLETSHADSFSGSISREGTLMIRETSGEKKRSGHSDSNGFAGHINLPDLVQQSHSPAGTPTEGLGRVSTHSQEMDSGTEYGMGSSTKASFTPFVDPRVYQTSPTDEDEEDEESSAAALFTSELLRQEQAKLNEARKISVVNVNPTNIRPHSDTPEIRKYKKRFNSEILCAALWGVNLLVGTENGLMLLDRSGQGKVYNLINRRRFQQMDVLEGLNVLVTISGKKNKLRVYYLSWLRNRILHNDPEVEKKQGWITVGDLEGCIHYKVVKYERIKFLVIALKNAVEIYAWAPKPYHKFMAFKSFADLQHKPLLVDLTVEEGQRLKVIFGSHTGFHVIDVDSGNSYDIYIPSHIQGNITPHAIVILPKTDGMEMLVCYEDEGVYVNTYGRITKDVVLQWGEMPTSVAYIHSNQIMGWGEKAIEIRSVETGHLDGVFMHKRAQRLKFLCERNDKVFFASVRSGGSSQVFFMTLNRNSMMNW
Method in brief: as §1

SPHK2 = molecular target: T3, SPHK2 (Homo sapiens, UniProt Q9NRA0); conditions: compound 5 μM; ATP at Km; 30-minute pre-incubation
T3 construct: Nanosyn (contract laboratory that ran the panel)
T3 sequence (Q9NRA0 1-654): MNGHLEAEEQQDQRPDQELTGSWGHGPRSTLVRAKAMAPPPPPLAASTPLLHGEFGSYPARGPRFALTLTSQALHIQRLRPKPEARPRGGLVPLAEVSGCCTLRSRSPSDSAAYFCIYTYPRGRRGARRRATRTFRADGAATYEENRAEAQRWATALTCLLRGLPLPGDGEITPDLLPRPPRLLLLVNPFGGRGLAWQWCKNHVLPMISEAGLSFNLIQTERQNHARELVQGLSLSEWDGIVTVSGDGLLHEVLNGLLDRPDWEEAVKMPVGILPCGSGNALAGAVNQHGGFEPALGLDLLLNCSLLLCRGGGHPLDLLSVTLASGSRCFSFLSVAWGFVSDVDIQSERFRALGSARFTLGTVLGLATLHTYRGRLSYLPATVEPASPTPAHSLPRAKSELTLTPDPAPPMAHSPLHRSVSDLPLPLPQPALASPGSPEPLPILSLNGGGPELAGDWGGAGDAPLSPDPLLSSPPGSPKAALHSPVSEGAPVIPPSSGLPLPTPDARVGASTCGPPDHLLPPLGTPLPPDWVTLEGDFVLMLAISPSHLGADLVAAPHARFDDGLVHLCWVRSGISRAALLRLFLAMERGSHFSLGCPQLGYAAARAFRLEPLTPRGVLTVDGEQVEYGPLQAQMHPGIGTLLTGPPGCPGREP
Method in brief: as §1

BRAF = molecular target: T4, BRAF (Homo sapiens, UniProt P15056); conditions: compound 5 μM; ATP at Km; 30-minute pre-incubation
T4 construct: purchased Nanosyn (contract screening)
T4 sequence (P15056 whole entry): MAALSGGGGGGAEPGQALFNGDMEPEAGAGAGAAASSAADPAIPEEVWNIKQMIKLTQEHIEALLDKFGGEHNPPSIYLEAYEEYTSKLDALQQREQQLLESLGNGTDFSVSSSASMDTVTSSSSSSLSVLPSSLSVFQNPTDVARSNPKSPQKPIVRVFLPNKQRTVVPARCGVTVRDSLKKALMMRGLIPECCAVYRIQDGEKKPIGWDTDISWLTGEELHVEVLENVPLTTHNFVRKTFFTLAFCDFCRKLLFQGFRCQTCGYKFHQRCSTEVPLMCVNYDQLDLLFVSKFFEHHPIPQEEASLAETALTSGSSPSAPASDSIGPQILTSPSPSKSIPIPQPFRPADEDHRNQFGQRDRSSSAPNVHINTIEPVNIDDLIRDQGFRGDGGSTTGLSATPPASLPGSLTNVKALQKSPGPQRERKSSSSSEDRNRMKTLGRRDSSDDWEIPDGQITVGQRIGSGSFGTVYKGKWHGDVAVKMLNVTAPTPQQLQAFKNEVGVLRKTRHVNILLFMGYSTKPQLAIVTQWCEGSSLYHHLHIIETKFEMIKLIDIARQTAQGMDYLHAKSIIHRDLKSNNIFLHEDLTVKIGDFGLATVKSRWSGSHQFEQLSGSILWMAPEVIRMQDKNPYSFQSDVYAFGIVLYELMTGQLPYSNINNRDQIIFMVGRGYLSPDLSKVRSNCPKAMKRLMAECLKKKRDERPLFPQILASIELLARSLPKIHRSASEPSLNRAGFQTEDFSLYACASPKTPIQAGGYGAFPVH
Method in brief: as §1

DDR2 = molecular target: T5, DDR2 (Homo sapiens, UniProt Q16832); conditions: ATP at Km, 30-minute pre-incubation; for inhibition at 5 µM: compound 5 μM; for IC50: read-out: kinase inhibition in terms of IC50, DDR2
T5 construct: purchased Nanosyn (contract screening)
T5 sequence (Q16832 22-855): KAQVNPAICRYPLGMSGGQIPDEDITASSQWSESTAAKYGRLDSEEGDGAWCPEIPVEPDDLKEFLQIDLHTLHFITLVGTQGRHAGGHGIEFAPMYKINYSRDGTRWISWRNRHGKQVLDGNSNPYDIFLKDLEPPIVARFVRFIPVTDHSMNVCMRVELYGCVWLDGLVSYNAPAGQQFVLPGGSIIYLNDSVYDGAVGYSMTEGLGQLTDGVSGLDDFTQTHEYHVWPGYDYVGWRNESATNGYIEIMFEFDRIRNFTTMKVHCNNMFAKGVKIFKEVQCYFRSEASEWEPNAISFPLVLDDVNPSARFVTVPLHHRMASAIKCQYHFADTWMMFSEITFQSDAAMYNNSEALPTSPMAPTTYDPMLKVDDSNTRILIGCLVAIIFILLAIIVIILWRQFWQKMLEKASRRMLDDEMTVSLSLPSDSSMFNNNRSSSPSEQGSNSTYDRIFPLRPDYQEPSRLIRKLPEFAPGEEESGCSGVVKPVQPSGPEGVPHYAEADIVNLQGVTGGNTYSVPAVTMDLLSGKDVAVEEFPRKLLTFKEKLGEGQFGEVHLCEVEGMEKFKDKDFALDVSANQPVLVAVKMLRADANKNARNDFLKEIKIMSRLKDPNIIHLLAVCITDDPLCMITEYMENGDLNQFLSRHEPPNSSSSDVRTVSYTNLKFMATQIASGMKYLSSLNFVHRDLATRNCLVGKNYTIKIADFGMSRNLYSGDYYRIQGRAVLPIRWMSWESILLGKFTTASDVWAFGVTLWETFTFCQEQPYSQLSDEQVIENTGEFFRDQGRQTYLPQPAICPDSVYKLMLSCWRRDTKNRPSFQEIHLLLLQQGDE
Method in brief: as §1

ERBB4 = molecular target: T6, ERBB4 (Homo sapiens, UniProt Q15303); conditions: compound 5 μM; ATP at Km; 30-minute pre-incubation
T6 construct: purchased Nanosyn (contract screening)
T6 sequence (Q15303 26-1308): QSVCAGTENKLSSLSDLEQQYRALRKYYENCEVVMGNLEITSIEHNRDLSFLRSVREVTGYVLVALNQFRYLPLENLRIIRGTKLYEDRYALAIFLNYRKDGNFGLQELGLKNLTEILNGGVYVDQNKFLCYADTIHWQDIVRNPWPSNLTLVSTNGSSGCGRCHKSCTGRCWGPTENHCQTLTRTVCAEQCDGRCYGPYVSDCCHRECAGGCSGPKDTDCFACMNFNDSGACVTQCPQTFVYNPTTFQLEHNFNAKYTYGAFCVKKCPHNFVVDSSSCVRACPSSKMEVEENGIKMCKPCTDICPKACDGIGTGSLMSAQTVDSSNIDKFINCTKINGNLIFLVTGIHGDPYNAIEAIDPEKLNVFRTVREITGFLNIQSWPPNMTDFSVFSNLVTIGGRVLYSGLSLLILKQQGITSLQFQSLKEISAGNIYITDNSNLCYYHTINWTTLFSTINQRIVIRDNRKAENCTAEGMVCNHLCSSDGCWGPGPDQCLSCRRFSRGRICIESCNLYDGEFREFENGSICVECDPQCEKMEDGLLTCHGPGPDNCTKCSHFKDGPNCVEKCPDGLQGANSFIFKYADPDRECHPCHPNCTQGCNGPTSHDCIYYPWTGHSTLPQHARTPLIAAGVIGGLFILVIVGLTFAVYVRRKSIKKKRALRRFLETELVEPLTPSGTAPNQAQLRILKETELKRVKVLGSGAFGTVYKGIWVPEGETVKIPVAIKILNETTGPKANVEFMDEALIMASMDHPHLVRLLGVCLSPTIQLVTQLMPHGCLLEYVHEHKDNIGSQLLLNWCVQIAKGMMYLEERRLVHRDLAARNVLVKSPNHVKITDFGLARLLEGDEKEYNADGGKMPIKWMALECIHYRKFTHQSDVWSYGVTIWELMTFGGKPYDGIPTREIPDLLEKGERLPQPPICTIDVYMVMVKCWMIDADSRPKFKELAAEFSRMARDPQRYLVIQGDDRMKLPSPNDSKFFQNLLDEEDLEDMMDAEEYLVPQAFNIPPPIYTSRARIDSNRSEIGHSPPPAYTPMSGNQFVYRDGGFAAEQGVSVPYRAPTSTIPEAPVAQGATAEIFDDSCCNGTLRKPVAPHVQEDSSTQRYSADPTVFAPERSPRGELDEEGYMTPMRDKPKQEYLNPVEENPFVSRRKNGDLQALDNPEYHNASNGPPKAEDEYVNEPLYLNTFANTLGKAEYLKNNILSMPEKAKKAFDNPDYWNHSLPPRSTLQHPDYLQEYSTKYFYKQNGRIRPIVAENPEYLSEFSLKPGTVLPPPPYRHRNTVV
Method in brief: as §1

PDGFRb = molecular target: T7, PDGFRb (Homo sapiens, UniProt P09619); conditions: compound 5 μM; ATP at Km; 30-minute pre-incubation
T7 construct: Nanosyn (contract laboratory that ran the panel)
T7 sequence (P09619 33-1106): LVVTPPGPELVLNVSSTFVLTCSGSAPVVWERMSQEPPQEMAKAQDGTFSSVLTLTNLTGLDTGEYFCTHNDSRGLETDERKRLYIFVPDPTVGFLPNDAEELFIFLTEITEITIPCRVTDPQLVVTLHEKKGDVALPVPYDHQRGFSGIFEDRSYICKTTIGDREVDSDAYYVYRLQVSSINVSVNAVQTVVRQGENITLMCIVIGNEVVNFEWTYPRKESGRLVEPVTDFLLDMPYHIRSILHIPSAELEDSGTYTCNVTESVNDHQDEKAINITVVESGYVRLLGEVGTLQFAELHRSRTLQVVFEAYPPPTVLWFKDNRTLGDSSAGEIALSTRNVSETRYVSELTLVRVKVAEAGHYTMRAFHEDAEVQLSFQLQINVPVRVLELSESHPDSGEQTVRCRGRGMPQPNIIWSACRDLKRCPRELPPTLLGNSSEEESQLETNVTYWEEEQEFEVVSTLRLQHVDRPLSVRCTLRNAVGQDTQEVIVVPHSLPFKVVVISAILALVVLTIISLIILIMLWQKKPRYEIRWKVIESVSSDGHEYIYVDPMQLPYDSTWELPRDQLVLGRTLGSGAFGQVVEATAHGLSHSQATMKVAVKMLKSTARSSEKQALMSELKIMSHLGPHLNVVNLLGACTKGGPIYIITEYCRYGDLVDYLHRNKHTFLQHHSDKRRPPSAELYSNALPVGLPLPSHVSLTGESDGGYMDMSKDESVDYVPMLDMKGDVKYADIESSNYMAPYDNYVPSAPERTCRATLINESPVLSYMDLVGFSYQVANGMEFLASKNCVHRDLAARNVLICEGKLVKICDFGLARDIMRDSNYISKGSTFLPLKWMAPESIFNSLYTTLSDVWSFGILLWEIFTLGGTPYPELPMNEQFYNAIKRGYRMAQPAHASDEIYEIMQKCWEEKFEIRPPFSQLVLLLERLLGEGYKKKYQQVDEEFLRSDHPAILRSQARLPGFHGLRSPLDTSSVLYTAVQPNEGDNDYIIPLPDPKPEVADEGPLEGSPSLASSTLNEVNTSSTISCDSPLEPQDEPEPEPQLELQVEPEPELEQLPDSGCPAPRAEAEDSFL
Method in brief: as §1

SMILES | inhibition at 5 µM (MAP4K2) | inhibition at 5 µM (TNIK) | inhibition at 5 µM (SPHK2) | inhibition at 5 µM (BRAF) | inhibition at 5 µM (DDR2) | inhibition at 5 µM (ERBB4) | inhibition at 5 µM (PDGFRb) | IC50 (DDR2)
Cc1ccc(NC(=O)c2cc([S+](C)[O-])n(-c3ccc(F)cc3)n2)cc1-c1cc(N2CCOCC2)c(=O)n(C)c1 (stereo not drawn) [Ex11, 1-(4-fluorophenyl)-N-(4-methyl-3-(1-methyl-5-morpholino-6-oxo-1,6-dihydropyridin-3-yl)phenyl)-5-(methylsulfinyl)-1H-pyrazole-3-carboxamide] | < 79% | < 79% | < 79% | ≥ 95% | < 79% | < 79% | < 79% | –
CNC(=O)c1cc(Oc2ccc(NC(=O)c3cc(S(C)(=O)=O)n(-c4ccc(F)cc4)n3)c(F)c2)ccn1 [Ex17, 4-(3-fluoro-4-(1-(4-fluorophenyl)-5-(methylsulfonyl)-1H-pyrazole-3-carboxamido)phenoxy)-N-methylpicolinamide] | < 79% | < 79% | < 79% | < 79% | < 79% | < 79% | < 79% | –
COc1cc2nccc(Oc3ccc(NC(=O)c4cc(S(C)(=O)=O)n(-c5ccc(F)cc5)n4)cc3F)c2cc1OC [Ex73, N-(4-((6,7-dimethoxyquinolin-4-yl)oxy)-3-fluorophenyl)-1-(4-fluorophenyl)-5-(methylsulfonyl)-1H-pyrazole-3-carboxamide] | – | – | – | – | – | – | – | < 500 nM
CNC(=O)c1cc(Oc2ccc(F)c(NC(=O)c3cc([S+](C)[O-])n(-c4ccc(F)cc4)n3)c2)ccn1 (stereo not drawn) [Ex7, 4-(4-fluoro-3-(1-(4-fluorophenyl)-5-(methylsulfinyl)-1H-pyrazole-3-carboxamido)phenoxy)-N-methylpicolinamide] | < 79% | < 79% | < 79% | 90 to 94% | < 79% | < 79% | < 79% | –
Cc1ccc(NC(=O)c2cc(S(C)(=O)=O)n(-c3ccc(F)cc3)n2)cc1-c1cc(OCCO)nc(N2CCOCC2)c1 [Ex9, 1-(4-fluorophenyl)-N-(3-(2-(2-hydroxyethoxy)-6-morpholinopyridin-4-yl)-4-methylphenyl)-5-(methylsulfonyl)-1H-pyrazole-3-carboxamide] | < 79% | < 79% | < 79% | ≥ 95% | 90 to 94% | < 79% | < 79% | –
Cc1ccc(NC(=O)c2cc(S(C)(=O)=O)n(-c3ccc(F)cc3)n2)cc1C#Cc1cnc2cccnn12 [Ex14, 1-(4-fluorophenyl)-N-(3-(imidazo[1,2-b]pyridazin-3-ylethynyl)-4-methylphenyl)-5-(methylsulfonyl)-1H-pyrazole-3-carboxamide] | < 79% | < 79% | < 79% | ≥ 95% | ≥ 95% | < 79% | 90 to 94% | –
Cc1ccc(NC(=O)c2cc(S(C)(=O)=O)n(-c3ccc(F)cc3)n2)cc1-c1cc(N2CCOCC2)c(=O)n(C)c1 [Ex12, 1-(4-fluorophenyl)-N-(4-methyl-3-(1-methyl-5-morpholino-6-oxo-1,6-dihydropyridin-3-yl)phenyl)-5-(methylsulfonyl)-1H-pyrazole-3-carboxamide] | < 79% | < 79% | < 79% | ≥ 95% | < 79% | < 79% | < 79% | –
Cc1ccc(NC(=O)c2cc(S(C)(=O)=O)n(-c3ccc(F)cc3)n2)cc1Nc1ccc2ncn(C)c(=O)c2c1 [Ex4, 1-(4-fluorophenyl)-N-(4-methyl-3-((3-methyl-4-oxo-3,4-dihydroquinazolin-6-yl)amino)phenyl)-5-(methylsulfonyl)-1H-pyrazole-3-carboxamide] | < 79% | < 79% | < 79% | ≥ 95% | ≥ 95% | < 79% | 80 to 89% | –
Cc1ccc(NC(=O)c2cc([S+](C)[O-])n(-c3ccc(F)cc3)n2)cc1Nc1ccc2ncn(C)c(=O)c2c1 (stereo not drawn) [Ex5, 1-(4-fluorophenyl)-N-(4-methyl-3-((3-methyl-4-oxo-3,4-dihydroquinazolin-6-yl)amino)phenyl)-5-(methylsulfinyl)-1H-pyrazole-3-carboxamide] | < 79% | < 79% | < 79% | ≥ 95% | < 79% | < 79% | < 79% | –
CCOC(=O)Nc1cn2nc(Nc3cc(NC(=O)c4cc(S(C)(=O)=O)n(-c5ccc(F)cc5)n4)ccc3C)ccc2n1 [Ex15, ethyl (6-((5-(1-(4-fluorophenyl)-5-(methylsulfonyl)-1H-pyrazole-3-carboxamido)-2-methylphenyl)amino)imidazo[1,2-b]pyridazin-2-yl)carbamate] | < 79% | < 79% | < 79% | ≥ 95% | ≥ 95% | < 79% | ≥ 95% | –
CSc1cc(C(=O)Nc2cc(Oc3ccnc(C(=O)NC4CNC4)c3)ccc2F)nn1-c1ccc(F)cc1 [Ex8, N-(azetidin-3-yl)-4-(4-fluoro-3-(1-(4-fluorophenyl)-5-(methylthio)-1H-pyrazole-3-carboxamido)phenoxy)picolinamide] | 80 to 89% | 90 to 94% | < 79% | 90 to 94% | < 79% | < 79% | < 79% | –
COc1cc2nccc(Oc3ccc(NC(=O)c4cc(S(C)(=O)=O)n(-c5ccc(F)cc5)n4)c(F)c3)c2cc1OC [Ex71, N-(4-((6,7-dimethoxyquinolin-4-yl)oxy)-2-fluorophenyl)-1-(4-fluorophenyl)-5-(methylsulfonyl)-1H-pyrazole-3-carboxamide] | – | – | – | – | – | – | – | < 500 nM
